# Experimental data as given in US20160046618A1, “Cyclopropyl Fused Thiazin-2-Amine Compounds as Beta-Secretase Inhibitors and Methods of Use” (AMGEN INC., priority 2014, published 2016).
# Where two headings read alike, the source gives them in different places.
# How the values were obtained:
# human recombinant BACE1 = human recombinant BACE1 (Homo sapiens (Human), UniProt P56817); experiment: In vitro enzymatic BACE1 FRET assay; assay type: biochemical; conditions: read-out: IC50 IP (μM) BACE1 enzyme
# human recombinant BACE1, sequence (P56817 46-501): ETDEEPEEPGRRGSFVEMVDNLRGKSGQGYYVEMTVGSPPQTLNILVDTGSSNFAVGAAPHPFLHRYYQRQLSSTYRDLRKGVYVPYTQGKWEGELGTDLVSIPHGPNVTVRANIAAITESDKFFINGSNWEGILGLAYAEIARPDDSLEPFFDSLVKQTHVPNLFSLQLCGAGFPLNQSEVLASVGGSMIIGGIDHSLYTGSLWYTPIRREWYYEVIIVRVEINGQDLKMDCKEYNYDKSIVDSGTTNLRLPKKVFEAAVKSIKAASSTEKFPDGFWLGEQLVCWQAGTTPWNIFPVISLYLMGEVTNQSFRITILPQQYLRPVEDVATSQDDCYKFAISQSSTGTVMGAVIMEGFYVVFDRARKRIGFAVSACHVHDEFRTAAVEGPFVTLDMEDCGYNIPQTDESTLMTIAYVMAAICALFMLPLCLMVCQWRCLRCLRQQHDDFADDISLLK
# Outline: (§1)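 Reactions were initiated by adding 50 nM of a peptide carrying fluorophore and quencher on opposite sides of the cleavage site and ran for one hour. Tris buffer then brought the pH to neutrality, ending the reaction, and fluorescence was measured (488 nm excitation, 590 nm emission).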
# Recombinant Cat D = Recombinant Cat D (Homo sapiens (Human), UniProt P07339); experiment: In vitro enzymatic Cathepsin D (Cat D) FRET assay; assay type: biochemical; conditions: read-out: IC50 IP (μM) CatD
# Recombinant Cat D, sequence (P07339 65-412): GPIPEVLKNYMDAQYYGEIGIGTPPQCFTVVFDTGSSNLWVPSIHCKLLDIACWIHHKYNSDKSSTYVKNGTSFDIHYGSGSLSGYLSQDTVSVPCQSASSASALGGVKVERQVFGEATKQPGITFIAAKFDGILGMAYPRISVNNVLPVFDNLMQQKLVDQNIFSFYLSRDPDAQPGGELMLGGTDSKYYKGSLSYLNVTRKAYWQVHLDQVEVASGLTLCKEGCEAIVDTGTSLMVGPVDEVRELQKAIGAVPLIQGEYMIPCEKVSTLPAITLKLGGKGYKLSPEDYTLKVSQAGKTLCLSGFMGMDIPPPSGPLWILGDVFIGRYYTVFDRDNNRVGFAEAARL
# Outline: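 Cleavage of a 20 nM FRET peptide by CHO-derived Cat D over 1 h at pH 3.5 (citrate buffer with CHAPS, 10% DMSO final). Endpoint fluorescence is read after Tris quench.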
# human recombinant BACE2 = human recombinant BACE2 (Homo sapiens (Human), UniProt Q9Y5Z0); experiment: In vitro enzymatic BACE2 FRET assay; assay type: biochemical; conditions: read-out: IC50 IP (μM) BACE2 enzyme
# human recombinant BACE2, sequence (Q9Y5Z0 63-518): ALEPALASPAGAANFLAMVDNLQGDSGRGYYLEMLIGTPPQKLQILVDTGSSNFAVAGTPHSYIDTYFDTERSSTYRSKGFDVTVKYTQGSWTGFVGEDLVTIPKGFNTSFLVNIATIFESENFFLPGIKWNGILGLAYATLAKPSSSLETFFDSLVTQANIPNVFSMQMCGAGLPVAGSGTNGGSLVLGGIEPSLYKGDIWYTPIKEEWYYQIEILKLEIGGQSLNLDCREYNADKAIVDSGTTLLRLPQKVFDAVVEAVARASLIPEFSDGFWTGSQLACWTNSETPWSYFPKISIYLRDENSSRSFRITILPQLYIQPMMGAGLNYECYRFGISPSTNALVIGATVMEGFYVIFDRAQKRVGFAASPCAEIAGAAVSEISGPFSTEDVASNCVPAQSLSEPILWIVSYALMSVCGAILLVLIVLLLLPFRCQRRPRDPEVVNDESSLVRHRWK
# Outline: as §1
# [1] = tested on: Aβ40 in conditioned medium of cells stably expressing Amyloid Precursor Protein (APP); experiment: In vitro BACE-1 cell-based assay (Aβ40 sandwich ELISA); conditions: read-out: IC50 IP (μM) BACE1 cell
# Outline: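 Aβ40 in supernatants measured by time-resolved fluorescence sandwich ELISA, with pAb40 as capture and biotin-6E10 as detector antibody, each incubated at 4 °C.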
SMILES,IC50 (human recombinant BACE1),IC50 (Recombinant Cat D),IC50 (human recombinant BACE2),IC50 [1],IC50 (human recombinant BACE1; BACE1 FRET enzyme assay),IC50 (Recombinant Cat D; Cathepsin D FRET enzyme assay),IC50 (human recombinant BACE2; BACE2 FRET enzyme assay),IC50 ([1]; BACE1 cell-based assay)
"Cc1cc(OC(F)F)cnc1C(=O)Nc1cc(F)c(F)c([C@@]2(CF)N=C(N)S[C@H]3C[C@H]32)c1 [Example 86, N-(3-((1S,5S,6S)-3-amino-5-(fluoromethyl)-2-thia-4-azabicyclo[4.1.0]hept-3-en-5-yl)-4,5-difluorophenyl)-5-(difluoromethoxy)-3-methyl-2-pyridinecarboxamide]",–,–,–,–,0.00763 µM,715 µM,0.0206 µM,0.0501 µM
"COC(=O)c1cc(NC(=O)c2ccc(Cl)cn2)cc([C@@]2(C)N=C(N)S[C@@]3(C(=O)OC)C[C@H]32)c1F [Example 855, (1S,5S,6S)-methyl 3-amino-5-(5-(5-chloropicolinamido)-2-fluoro-3-(methoxycarbonyl)phenyl)-5-methyl-2-thia-4-azabicyclo[4.1.0]hept-3-ene-1-carboxylate]",0.198 µM,> 400 µM,0.0224 µM,0.294 µM,–,–,–,–
"COC[C@]12C[C@H]1[C@@](C)(c1cc(NC(=O)c3c[nH]c(=O)cn3)cc(F)c1F)N=C(N)S2 [Example 1027, N-(3-((1S,5S,6S)-3-amino-1-(methoxymethyl)-5-methyl-2-thia-4-azabicyclo[4.1.0]hept-3-en-5-yl)-4,5-difluorophenyl)-5-oxo-4,5-dihydro-2-pyrazinecarboxamide]",0.0196 µM,981 µM,0.0565 µM,0.136 µM,–,–,–,–
"COC[C@]12C[C@H]1[C@@](C)(c1cc(NC(=O)c3ncc(OCC(F)(F)F)nc3C)cc(F)c1F)N=C(N)S2 [Example 618, N-(3-((1S,5S,6S)-3-amino-1-(methoxymethyl)-5-methyl-2-thia-4-azabicyclo[4.1.0]hept-3-en-5-yl)-4,5-difluorophenyl)-3-methyl-5-(2,2,2-trifluoroethoxy)-2-pyrazinecarboxamide]",0.00606 µM,1020 µM,0.0161 µM,0.0557 µM,–,–,–,–
"C[C@]1(c2cc(NC(=O)c3ccc(Cl)cn3)cc(F)c2F)N=C(N)S[C@@H]2[C@H]1C2(F)F [Example 748, N-(3-((1R,5S,6R)-3-amino-7,7-difluoro-5-methyl-2-thia-4-azabicyclo[4.1.0]hept-3-en-5-yl)-4,5-difluorophenyl)-5-chloro-2-pyridinecarboxamide]",0.00807 µM,129 µM,0.00284 µM,0.597 µM,–,–,–,–
"COC[C@]12C[C@H]1[C@@](C)(c1cc(Nc3nccc4cc(OCc5cnco5)cnc34)cc(F)c1F)N=C(N)S2 [Example 726, N-(3-((1S,5S,6S)-3-amino-1-(methoxymethyl)-5-methyl-2-thia-4-azabicyclo[4.1.0]hept-3-en-5-yl)-4,5-difluorophenyl)-3-(1,3-oxazol-5-ylmethoxy)-1,7-naphthyridin-8-amine]",0.179 µM,> 400 µM,0.641 µM,0.406 µM,–,–,–,–
"C#C[C@H](C)Oc1cnc(C(=O)Nc2ccc(F)c([C@@]3(C)N=C(N)S[C@@]4(CF)C[C@H]43)c2)c(C)c1 [Example 651, N-(3-((1S,5S,6S)-3-amino-1-(fluoromethyl)-5-methyl-2-thia-4-azabicyclo[4.1.0]hept-3-en-5-yl)-4-fluorophenyl)-3-methyl-5-(((1S)-1-methyl-2-propyn-1-yl)oxy)-2-pyridinecarboxamide]",0.0589 µM,1030 µM,0.397 µM,0.139 µM,–,–,–,–
"NC1=N[C@](CF)(c2cc(NC(=O)c3ccc(Cl)cn3)ccc2F)[C@@H]2[C@H]3CSC[C@]32S1 (mixture of isomers) [Example 752, N-(3-((4S,4aR,7aS)-2-amino-4-(fluoromethyl)-4a,4b,5,7-tetrahydro-4H-thieno[3′,4′:2,3]cyclopropa[1,2-e][1,3]thiazin-4-yl)-4-fluorophenyl)-5-chloropicolinamide and N-(3-((4S,4aS,7aR)-2-amino-4-(fluoromethyl)-4a,4b,5,7-tetrahydro-4H-thieno[3′,4′:2,3]cyclopropa[1,2-e][1,3]thiazin-4-yl)-4-fluorophenyl)-5-chloropicolinamide]",0.0068 µM,26.4 µM,0.00709 µM,0.0522 µM,–,–,–,–

# More lines, in order of falling IC50 (human recombinant BACE1), values ahead:
IC50 (human recombinant BACE1),IC50 (Recombinant Cat D),IC50 (human recombinant BACE2),IC50 [1],IC50 (human recombinant BACE1; BACE1 FRET enzyme assay),IC50 (Recombinant Cat D; Cathepsin D FRET enzyme assay),IC50 (human recombinant BACE2; BACE2 FRET enzyme assay),IC50 ([1]; BACE1 cell-based assay),SMILES
0.0053 µM,167 µM,0.0254 µM,0.113 µM,–,–,–,–,"COc1cnc2c(Nc3cc(F)c(F)c([C@@]4(C)N=C(N)S[C@@]5(C(F)F)C[C@@H]45)c3)nccc2n1 [Example 895, N-(3-((1S,5S,6S)-3-amino-1-(difluoromethyl)-5-methyl-2-thia-4-azabicyclo[4.1.0]hept-3-en-5-yl)-4,5-difluorophenyl)-2-methoxypyrido[3,4-b]pyrazin-5-amine]"
0.00409 µM,918 µM,0.00881 µM,0.00635 µM,–,–,–,–,"CCOC[C@]12C[C@H]1[C@@](CF)(c1cc(NC(=O)c3ncc(C#N)cc3C)ccc1F)N=C(N)S2 [Example 715, N-(3-((1S,5S,6S)-3-amino-1-(ethoxymethyl)-5-(fluoromethyl)-2-thia-4-azabicyclo[4.1.0]hept-3-en-5-yl)-4-fluorophenyl)-5-cyano-3-methyl-2-pyridinecarboxamide]"
0.00319 µM,1360 µM,0.204 µM,0.0135 µM,–,–,–,–,"COC[C@]12C[C@H]1[C@@](C)(c1cc(NC(=O)c3cnc(OCC(C)OC)cn3)cc(F)c1F)N=C(N)S2 (stereo partly drawn) [Example 1023, N-(3-((1S,5S,6S)-3-amino-1-(methoxymethyl)-5-methyl-2-thia-4-azabicyclo[4.1.0]hept-3-en-5-yl)-4,5-difluorophenyl)-5-(2-methoxypropoxy)pyrazine-2-carboxamide]"
0.00292 µM,354 µM,0.0294 µM,0.0086 µM,–,–,–,–,"C[C@]1(c2cc(Nc3nccc4nc(OCc5cocn5)cnc34)ccc2F)N=C(N)S[C@]2(CO)[C@H]1C2(F)F [Example 706, ((1S,5S,6R)-3-amino-7,7-difluoro-5-(2-fluoro-5-((2-(1,3-oxazol-4-ylmethoxy)pyrido[3,4-b]pyrazin-5-yl)amino)phenyl)-5-methyl-2-thia-4-azabicyclo[4.1.0]hept-3-en-1-yl)methanol]"
0.00208 µM,1080 µM,0.0746 µM,0.00712 µM,–,–,–,–,"C#CCOc1cnc2c(Nc3ccc(F)c([C@@]4(CF)N=C(N)S[C@@]5(Cn6cc(C)nn6)C[C@H]54)c3)nccc2n1 [Example 724, N-(3-((1S,5S,6S)-3-amino-5-(fluoromethyl)-1-((4-methyl-1H-1,2,3-triazol-1-yl)methyl)-2-thia-4-azabicyclo[4.1.0]hept-3-en-5-yl)-4-fluorophenyl)-2-(2-propyn-1-yloxy)pyrido[3,4-b]pyrazin-5-amine]"
0.00126 µM,16.3 µM,0.00755 µM,0.0108 µM,–,–,–,–,"CCC#CCOc1cnc2c(Nc3ccc(F)c([C@@]4(CF)N=C(N)S[C@@]5(/C=C/C(=O)N(C)C)C[C@H]54)c3)nccc2n1 [Example 952, (2E)-3-((1R,5S,6S)-3-amino-5-(fluoromethyl)-5-(2-fluoro-5-((2-(2-pentyn-1-yloxy)pyrido[3,4-b]pyrazin-5-yl)amino)phenyl)-2-thia-4-azabicyclo[4.1.0]hept-3-en-1-yl)-N,N-dimethyl-2-propenamide]"
0.00106 µM,1020 µM,0.0465 µM,0.0323 µM,–,–,–,–,"COC[C@]12C[C@H]1[C@@](C)(c1cc(NC(=O)c3cnc(OCc4cc(C)on4)cn3)cc(F)c1F)N=C(N)S2 [Example 1032, N-(3-((1S,5S,6S)-3-amino-1-(methoxymethyl)-5-methyl-2-thia-4-azabicyclo[4.1.0]hept-3-en-5-yl)-4,5-difluorophenyl)-5-((5-methyl-3-isoxazolyl)methoxy)-2-pyrazinecarboxamide]"
0.000976 µM,584 µM,< 0.00203 µM,0.0464 µM,–,–,–,–,"NC1=N[C@](CF)(c2cc(NC(=O)c3ccc(Cl)cn3)ccc2F)[C@@H]2C[C@]2(c2ccon2)S1 [Example 786, N-(3-((1S,5S,6S)-3-amino-5-(fluoromethyl)-1-(isoxazol-3-yl)-2-thia-4-azabicyclo[4.1.0]hept-3-en-5-yl)-4-fluorophenyl)-5-chloropicolinamide]"
0.000768 µM,1430 µM,0.0304 µM,0.00025 µM,–,–,–,–,"COC[C@]12C[C@H]1[C@@](C)(c1cc(NC(=O)c3cnc(OCc4ncco4)cn3)cc(C)c1F)N=C(N)S2 [Example 1071, N-(3-((1S,5S,6S)-3-amino-1-(methoxymethyl)-5-methyl-2-thia-4-azabicyclo[4.1.0]hept-3-en-5-yl)-4-fluoro-5-methylphenyl)-5-(oxazol-2-ylmethoxy)pyrazine-2-carboxamide]"
0.000765 µM,795 µM,0.00392 µM,0.00244 µM,–,–,–,–,"C#CCOc1cnc2c(Nc3cnc(F)c([C@@]4(C)N=C(N)S[C@]5(CO)[C@H]4C5(F)F)c3)nccc2n1 [Example 661, ((1S,5S,6R)-3-amino-7,7-difluoro-5-(2-fluoro-5-((2-(2-propyn-1-yloxy)pyrido[3,4-b]pyrazin-5-yl)amino)-3-pyridinyl)-5-methyl-2-thia-4-azabicyclo[4.1.0]hept-3-en-1-yl)methanol]"
